Measured values as given in paper PMC6895199, “A new antiviral scaffold for human norovirus identified with computer-aided approaches on the viral polymerase” (Scientific Reports, 2019).

Target: HuNoV (GII.4) RdRp (Norovirus Hu/GII.4/Sydney/NSW0514/2012/AU, UniProt K4L8Z7)
Assay: Quantitative fluorescent RdRp activity assay (PicoGreen, poly(C) template)
Type: biochemical, human norovirus Sydney 2012
Settings: 20 µM; for inhibition at 20 µM: read-out: inhibition of HuNoV RdRp activity at fixed concentration
Method in brief: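 Enzyme (400 ng) preincubated with compound 10 min at 30 °C, then reacted 15 min at 30 °C with 45 μM GTP, 10 ng/μL poly(C), 2.5 mM MnCl2, pH 7.5. Stopped with EDTA; dsRNA quantified by PicoGreen. Six concentrations (0.1–100 µM) gave IC50, or single 20 µM screen vs 0.5% DMSO.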

O=C(NC(=S)Nc1ccc(N2CCN(C(=O)c3cccs3)CC2)cc1)c1sc2ccccc2c1Cl [Compound 48, 3-Chloro-N-((4-(4-(thiophene-2-carbonyl)piperazin-1-yl)phenyl)carbamothioyl)benzo[b]thiophene-2-carboxamide, reference compound]
inhibition at 20 µM: 20%

Cc1ccc(C(=O)NC(=S)Nc2ccc(N3CCN(C(=O)c4cccs4)CC3)cc2)cc1 [Compound 52, 4-Methyl-N-((4-(4-(thiophene-2-carbonyl)piperazin-1-yl)phenyl)carbamothioyl)benzamide]
inhibition at 20 µM: ~15%

O=C(NC(=S)Nc1ccc(N2CCN(C(=O)c3nccs3)CC2)cc1)c1sc2ccccc2c1Cl [Compound 56, 3-Chloro-N-((4-(4-(thiazole-2-carbonyl)piperazin-1-yl)phenyl)carbamothioyl)benzo[b]thiophene-2-carboxamide]
inhibition of HuNoV RdRp activity at fixed concentration: does not affect enzymatic inhibition activity
